# Measured values published in US11021687B2, “Production of differentiated enteroendocrine cells and insulin producing cells” (Massachusetts Institute of Technology, priority 2016, dated 2021).
# Key:
# intestinal stem cells [1] = experiment: Ngn3 mRNA expression during EEC differentiation; type: cell-based, mouse
# Method: “Ngn3 Assay” as used herein is an assay used to determine the extent of expression of Ngn3 in cells, such as cells subjected to a differentiation protocol. In an exemplary Ngn3 Assay, RNA is isolated from cells that have been cultured according to a differentiation protocol, and quantitative real-time PCR is performed using commercially available primers and probes (such as Taqman probes) to determine an extent of Ngn3 expression in the cells.
# (§1) Organoids or differentiated cells were harvested and RNA was extracted using RNeasy Micro Kit (Qiagen) according to the manufacturer's instruction. Quantitative real-time PCR was performed with QuantiTect Probe PCR kit (Qiagen) using commercially available primers and TaqMan probes (Life Technologies).
# There has been prior speculation that Ngn3 positive secretory progenitors differentiate to EECs (Genes Dev. 2002).
# intestinal stem cells [2] = experiment: mRNA expression (qPCR) of ChgA and other lineage markers in differentiated intestinal stem cells; type: cell-based, mouse; details: for expression of Goblet cell marker (Muc2) and Paneth cell marker (Lyz1): 24-well validation; for expression of enteroendocrine cell marker ChgA: multiple conditions (FIG. 6); for EEC marker ChgA expression / expression of markers for K cell (Gip), L cell (Gcg), and I cell (Cck): 5 days 2-step protocol, Tubastatin A in step 1, Tranylcypromine in both steps
# Source text: “mRNA ChgA Expression Assay” refers to an assay used to determine the relative ChgA mRNA expression level in a cell population. For example, the assay can determine ChgA mRNA expression level of a differentiated cell population following treatment with agents being tested, as compared to an untested population of post-natal stem cells. In an example of an mRNA ChgA Expression Assay, the cells were collected and the RNA is extracted from the cells using an RNA extraction kit (such as RNeasy Mini kit, Qiagen). The ChgA expression level is then assessed by Quantitative real-time PCR using a one-step qPCR kit (such as QuantiTech Probe PCR kit, Qiagen) and ChgA primers and probes (such as commercially available Taqman probe for mouse ChgA, Life Technologies).
# as §1
# Cells were then cultured with EGF, Noggin, and DAPT (END), as well as small molecules. After 2-3 days of differentiation, the cells lysed and ChgA expression was measured by qRT-PCR.
# Small molecules were further validated using a 24-well plate culture and the differentiation system. […] The expression of markers of secretory lineage cells including goblet cells (Muc2), enteroendocrine cells (ChgA), and Paneth cells (Lyz1) were measured.
# [3] = system: differentiated cell colonies; details: for effect of removal: continuing culture of Islet-like Insulin expression cell colonies
# intestinal stem cells [4] = experiment: ChgA immunostaining of EEC differentiation from intestinal stem cells; type: cell-based, mouse; details: organoid culture (ENR) with Notch inhibitor DAPT (ENRD)
# Method: “ChgA Immunostaining Assay” as used herein is an assay used to determine the fraction of cells in a cell population that express ChgA by an immunostaining method. In an example of a ChgA immunostaining assay, a cell culture medium in which a cell population has been treated is removed, and the sample is washed with PBS. Organoids or cell colonies cultured in Matrigel are fixed directly by adding 4% PFA and incubating for 20 mins at room temperature. The Matrigel is then mechanically disrupted, and the cells are transferred to BSA-coated Eppendorf tubes. Samples are washed with PBS, permeabilized with 0.25% Triton X-100 for 30 minutes, and stained with primary antibody against Chromogranin A (e.g. anti-chromogranin A, sc-13090, Santa Cruz) and appropriate secondary antibodies (e.g. Alexa Fluor conjugated secondary antibodies, such as Alexa Fluor 594 conjugated Donkey anti-Rabbit antibody, A-21207; Life Technologies). Images are acquired by confocal microscopy.
# Differentiated cell colonies were collected by gently pipetting into a 1.5 ml protein Lobind Eppendorf tube. Cell culture medium was removed, and samples were washed with PBS. Organoids or cell colonies cultured in Matrigel were fixed by directly adding 4% PFA and incubating for 10-30 min at room temperature. Matrigel was then mechanically disrupted, and cells were transferred into BSA-coated Eppendorf tubes. […]
# [5] = system: gastrointestinal stem cells; experiment: Insulin / Nkx6.1 mRNA expression (qPCR), 3-stage conversion to insulin producing cells; type: cell-based, mouse
# Source text: “mRNA Insulin Expression Assay” refers to an assay used to determine the relative insulin mRNA expression level of a cell population. For example, the assay can determine the insulin mRNA level expressed in a cell population treated to increase the expression of insulin in the cells, as compared to an untreated population of cells. In an exemplary mRNA Insulin Expression Assay, the cells were collected and the RNA is extracted from the cells using an RNA extraction kit (such as RNeasy Mini kit, Qiagen). The insulin expression level is then assessed by Quantitative real-time PCR using a one-step qPCR kit (such as QuantiTech Probe PCR kit, Qiagen) and Ins1 or Ins2 primers and probes (such as the commercially available TaqMan probe for mouse Ins1 and Ins2, Life Technologies). The relative insulin mRNA expression can be determined relative to a baseline or other marker, such as Hprt mRNA expression level or other baseline marker.
# as §1
# Based on the protocol to convert gastrointestinal stem cells into insulin producing cells, a 3-stage process was developed, specifically, Day 0-1 as Stage 1, Day 1-3 as Stage 2, Day 3-5 as Stage 3. After Stage 3, the cells turn on significant level of Insulin expression as indicated by Ins-EGFP expression and qPCR for Insulin mRNA expression. Optionally, the cells can be further cultured for 1-2 weeks, as Stage 4. For each stage, a set of specific combination of small molecules (and/or growth factors) were added. The objective was to optimize the reprogramming protocol to increase insulin expression, specifically Insulin mRNA expression for each stage, by screening and testing new small molecules (or growth factors).
# [6] = system: differentiated intestinal stem cells; experiment: Insulin-GFP reporter expression (FACS) in differentiated intestinal stem cells; type: cell-based, mouse
# Source text: “Insulin Activity Assay” as used herein is an assay used to determine the extent to which insulin gene transcription, translation or insulin release has been activated in a cell population. In an exemplary Insulin Activity Assay, the initial cells are isolated from the intestine of an Insulin-GFP mouse such as […] mouse (also referred to as the MIT-GFP mouse, Jackson lab stock no.: 006864). Intestinal crypts are isolated from the proximal half of the intestine. […] The cells are then passaged for 1-2 times to create a starting cell population for the assay. To test the capacity of agents to activate insulin gene transcription, translation or insulin release, the cells are incubated with appropriate culture media (e.g. aforementioned crypt culture media), growth factors and/or other agents being tested. Appropriate culture media, including crypt culture media as well as the agents being assessed, are added into each well and incubated with the cells for a period of 2-10 days with media change every 2 days. The fraction of insulin-GFP positive cells (i.e., cells in which the insulin-GFP reporter is activated) can be quantified using a flow cytometer to measure the fraction of GFP+ cell population present in the total cell population. Also, the average insulin activity of a cell population can be measured by measuring the average mRNA expression level of insulin of the population normalized using suitable references or housekeeping genes (e.g., using mRNA expression of Hprt as a baseline).
# [7] = 2 days, added after removal of R-spondin1
# [8] = 96-well screening, END conditions, 2-3 days
# [9] = ENRD conditions, 2 days of differentiation
# [10] = added in step 1 only versus both steps
smiles,measurement,setting,value
COc1cc2ncnc(Nc3ccc(F)c(Cl)c3)c2cc1OCCCN1CCOCC1 [Gefitinib],Ngn3 expression,intestinal stem cells [1]; [7],further decreased
same,expression of Goblet cell marker (Muc2) and Paneth cell marker (Lyz1),intestinal stem cells [2]; END conditions,not similarly increased
same,ChgA expression,intestinal stem cells [2]; [8],increased
same,expression of enteroendocrine cell marker ChgA,intestinal stem cells [2],specifically increased
N[C@@H]1C[C@H]1c1ccccc1 (racemic) [Tranylcypromine],Ngn3 expression,intestinal stem cells [1]; [9],increase
same,expression of Goblet cell (Muc2) and Paneth cell (Lyz1) markers,"intestinal stem cells [2]; 2-step protocol, 5 days",significantly decreased
same,EEC marker ChgA expression,intestinal stem cells [2],increased
same,"expression of markers for K cell (Gip), L cell (Gcg), and I cell (Cck)",intestinal stem cells [2],also increased
same,ChgA expression,intestinal stem cells [2]; [9],increased
"CN1CCc2c(c3ccccc3n2Cc2ccc(C(=O)NO)cc2)C1.Cl [Tubastatin A, N-Hydroxy-4-(2-methyl-1,2,3,4-tetrahydro-pyrido[4,3-b]indol-5-ylmethyl)benzamide hydrochloride]",Ngn3 expression,intestinal stem cells [1]; [9],increase
same,EEC marker ChgA expression,intestinal stem cells [2],increased
same,"expression of markers for K cell (Gip), L cell (Gcg), and I cell (Cck)",intestinal stem cells [2],also increased
same,ChgA expression,intestinal stem cells [2]; [9],decreased
"O=C(NOC[C@H](O)CO)c1ccc(F)c(F)c1Nc1ccc(I)cc1F [PD0325901, N-[(2R)-2,3-Dihydroxypropoxyl]-3,4-difluoro-2-[(2-fluoro-4-iodophenyl)amino]-benzamide]",effect of removal,[3],could be removed without much influence
same,Ngn3 expression,intestinal stem cells [1]; [7],further decreased
same,expression of Goblet cell marker (Muc2) and Paneth cell marker (Lyz1),intestinal stem cells [2]; END conditions,not similarly increased
same,expression of enteroendocrine cell marker ChgA,intestinal stem cells [2],specifically increased
"C[C@H](NC(=O)Cc1cc(F)cc(F)c1)C(=O)N[C@H](C(=O)OC(C)(C)C)c1ccccc1 [DAPT, N—[N-(3,5-Difluorophenacetyl)-L-alanyl]-S-phenylglycine t-butyl ester]",effect of removal,[3],could be removed without much influence
same,stem cells turned into EECs,intestinal stem cells [4],5%-10%
same,concentration of highest activity / optimal concentration in promoting Insulin expression,[5]; dose response,5 µM
"Cc1cccc(-c2n[nH]cc2-c2ccc3ncccc3n2)n1 [compound 616452, 2-[3-(6-methyl-2-pyridinyl)-1H-pyrazol-4-yl]-1,5naphthyridine]",cell death in the culture,[3],induced cell death
same,Insulin mRNA (Ins2),[5]; added in Stage 1-3 compared with Stage 2-3,increased
same,optimal dose in promoting Insulin and Nkx6.1 expression,[5]; dose response,10 to 15 µM
same,optimal concentration in inducing insulin-GFP expression,"[6]; dose response, day 5",5 µM
same,cells becoming GFP positive,[6]; during EEC differentiation from ISCs,about 1%
same,"expression of mature EEC markers (Gcg, Gip, Cck, Tph1, Sst, Sct, Pyy)",intestinal stem cells [2]; 2-step protocol,greatly increased
same,goblet cell marker Muc2 expression,intestinal stem cells [2]; 2-step protocol,decreased
same,Cck expression over the expression level in the ENR condition,intestinal stem cells [2]; 2-step protocol with Repsox,430 ×
same,Gip expression over the expression level in the ENR condition,intestinal stem cells [2]; 2-step protocol with Repsox,800 ×
same,Pyy expression over the expression level in the ENR condition,intestinal stem cells [2]; 2-step protocol with Repsox,"15,000 ×"
same,Sct expression over the expression level in the ENR condition,intestinal stem cells [2]; 2-step protocol with Repsox,300 ×
same,Tph1 expression over the expression level in the ENR condition,intestinal stem cells [2]; 2-step protocol with Repsox,120 ×
same,ChgA level,intestinal stem cells [2]; [10],comparable level
same,expression of mature EEC markers,intestinal stem cells [2]; [10],greatly reduced
same,ChgA expression,intestinal stem cells [2]; added in step 2 of 2-step protocol,greatly promoted
same,"expression of functional EEC markers such as Gip, Gcg, Cck, Pyy",intestinal stem cells [2]; relative to reference gene Hprt,greatly increase
O=C(NC[C@H](O)CO)c1ccncc1Nc1ccc(I)cc1F [AS703026],Ngn3 expression,intestinal stem cells [1]; [7],further decreased
same,expression of Goblet cell marker (Muc2) and Paneth cell marker (Lyz1),intestinal stem cells [2]; END conditions,not similarly increased
same,ChgA expression,intestinal stem cells [2]; [8],increased
same,expression of enteroendocrine cell marker ChgA,intestinal stem cells [2],specifically increased
